Test system: Unknown protein yeast genes
Assay: DNA chip mRNA expression in yeast, unknown protein yeast genes (Table 1)
Type: cell-based, Saccharomyces cerevisiae S288C
In short: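 Untreated cultures served as reference for log-phase S288C yeast given a growth-inhibiting, non-lethal toxicant dose for 2 h at 25° C. in YPD. Gene expression was measured on a whole-genome DNA chip from Cy3/Cy5-labeled cDNA.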

Measured: The level of expressed mRNA in the presence of chemical substance/The level of expressed mRNA in the absence of chemical substance

manganese ethylenebis(dithiocarbamate) [(8)]
1.2: yeast gene YBL048W | yeast gene YEL001C, incubated two hours with chemical substance | yeast gene YER035W, incubated two hours with chemical substance | yeast gene YER106W, incubated two hours with chemical substance | yeast gene YGL037C, incubated two hours with chemical substance | yeast gene YGL053W, incubated two hours with chemical substance
24.7: yeast gene YKL071W
1.5: yeast gene YGR110W | yeast gene YJL057C, incubated two hours with chemical substance
0.9: yeast gene YDR411C, incubated two hours with chemical substance | yeast gene YER158C, incubated two hours with chemical substance | yeast gene YFL024C | yeast gene YGR130C, incubated two hours with chemical substance | yeast gene YIL041W, incubated two hours with chemical substance | yeast gene YJL082W, incubated two hours with chemical substance | yeast gene YJL171C, incubated two hours with chemical substance
0.8: yeast gene YAL053W, incubated two hours with chemical substance | yeast gene YDL072C, incubated two hours with chemical substance | yeast gene YGR101W, incubated two hours with chemical substance | yeast gene YJL066C, incubated two hours with chemical substance | yeast gene YJL151C, incubated two hours with chemical substance
1.9: yeast gene YBL107C
1.1: yeast gene YDL204W, incubated two hours with chemical substance | yeast gene YDR330W, incubated two hours with chemical substance | yeast gene YER004W, incubated two hours with chemical substance | yeast gene YER175C, incubated two hours with chemical substance | yeast gene YGL047W, incubated two hours with chemical substance | yeast gene YGR221C, incubated two hours with chemical substance | yeast gene YIL087C, incubated two hours with chemical substance | yeast gene YJR008W, incubated two hours with chemical substance | yeast gene YKL086W, incubated two hours with chemical substance
0.4: yeast gene YFL032W, incubated two hours with chemical substance
3.0: yeast gene YGL121C
1.4: yeast gene YER079W, incubated two hours with chemical substance | yeast gene YER163C, incubated two hours with chemical substance | yeast gene YHR138C, incubated two hours with chemical substance | yeast gene YJL161W, incubated two hours with chemical substance
0.7: yeast gene YDL222C, incubated two hours with chemical substance | yeast gene YGL199C, incubated two hours with chemical substance | yeast gene YIL023C, incubated two hours with chemical substance | yeast gene YJL152W, incubated two hours with chemical substance | yeast gene YKL153W, incubated two hours with chemical substance
1.0: yeast gene YFL006W, incubated two hours with chemical substance | yeast gene YFL010C, incubated two hours with chemical substance | yeast gene YHR199C, incubated two hours with chemical substance | yeast gene YKL151C, incubated two hours with chemical substance
1.6: yeast gene YJR054W, incubated two hours with chemical substance
0.6: yeast gene YDR545W, incubated two hours with chemical substance
1.7: yeast gene YDR511W, incubated two hours with chemical substance | yeast gene YGR154C, incubated two hours with chemical substance

Source: patent publication US8192962B2, “Processes for detecting toxic substances” (Daikin Industries, Ltd., priority 2001, dated 2012)
